Assay results from US20230203058A1, “MACROCYCLIC DIAMINE DERIVATIVES AS ENT INHIBITORS FOR THE TREATMENT OF CANCERS, AND COMBINATION THEREOF WITH ADENOSINE RECEPTOR ANTAGONISTS” (ITEOS BELGIUM SA, priority 2020, published 2023).

Target: T1, human ENT1 (Homo sapiens, UniProt Q99808)
T1 sequence (Q99808 1-456): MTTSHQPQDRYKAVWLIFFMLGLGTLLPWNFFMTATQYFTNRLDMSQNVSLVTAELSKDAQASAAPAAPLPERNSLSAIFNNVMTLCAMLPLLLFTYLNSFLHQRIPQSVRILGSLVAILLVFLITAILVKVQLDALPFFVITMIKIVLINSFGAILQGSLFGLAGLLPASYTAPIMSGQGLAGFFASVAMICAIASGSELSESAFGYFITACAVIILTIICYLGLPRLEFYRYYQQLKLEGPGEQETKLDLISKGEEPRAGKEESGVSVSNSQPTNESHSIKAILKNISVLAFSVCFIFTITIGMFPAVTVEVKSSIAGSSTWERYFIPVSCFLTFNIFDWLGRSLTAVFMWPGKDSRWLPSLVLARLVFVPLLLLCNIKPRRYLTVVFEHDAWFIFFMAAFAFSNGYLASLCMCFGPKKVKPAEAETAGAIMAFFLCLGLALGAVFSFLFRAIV
Assay: ENT1 binding assay (competition with Sahenta-DY647 on JAR cells)
Design: JAR cells expressing ENT1 were bought from ATCC® (HTB-144TM); host or cells: JAR cells (human choriocarcinoma line; whole cells)
Conditions: competition with Sahenta-DY647 100 nM, 4° C.
Protocol: The present assay aims at showing that the compounds of the present invention can bind to human ENT1. The principle of the assay is a competition between the compounds of this invention and Sahenta-DY647, an ENT1 inhibitor that emits fluorescence (Ex = 630 nm, Em = 670 nm). By measuring the fluorescence at the end of the assay we could assess the binding potency of the compounds of the present invention.
JAR cells expressing ENT1 were bought from ATCC® (HTB-144TM). Cells were cultured in RPMI 1640 medium (LONZA®, #BE12-702F/U1) supplemented with 10% FBS (GIBCO®, #10270-106), 10 mM Hepes (LONZA®, #BE17-737E), 1 mM Sodium Pyruvate (LONZA®, #BE13-115E) and 2% Penicillin/Streptomycin (LONZA®, #DE17-603E) at 37° C. and 5% CO2. The assay was conducted on the following buffer: HBSS (LONZA®, #LO-527F) supplemented with 10 mM Hepes (LONZA®, #BE17-737E) and 0.1% BSA (Miltenyi®, #130-091-376) on the day of the assay. JAR cells were resuspended in the described buffer. Compounds of the present invention and Sahenta-DY647 were diluted 200X in the described buffer.
A total of 50000 cells were pre-incubated for 30 min at 4° C. with the compounds of the present invention before adding the corresponded IC90 of Sahenta-DY647 (100 nM) and incubate once more for 30 min at 4° C. The total volume of the reaction was 100 µL (50 µL of cells, 25 µL of the compounds of the present invention and 25 µL of Sahenta-DY647) in a 96 well plate, U-bottom (Greiner®, #650-180). The plates were washed 2X by centrifugation (4 min, 400 rcf at 4° C.) in the same buffer. Cells were resuspended in 70 µL of the buffer and 50 µL was transferred to a Black 384 Optiplate (PerkinElmer®, #6007279). Fluorescence (Ex = 630 nm, Em = 670 nm) was acquired on a Spectramax i3x (Molecular Devices®).

| SMILES | IC50 [nM] |
| --- | --- |
| COc1cc2cc(c1OC)OCCCC(OC(=O)c1ccc(O)cc1)CCN1CCCN(CCCOC2=O)CC1 (centres unmarked) [Compound 41, 74,75-dimethoxy-6-oxo-5,8-dioxa-1(1,4)-diazepana-7(1,3)-benzenacyclotetradecaphane-12-yl 4-hydroxybenzoate] | 1 to 20 |
| COc1cc2cc(c1OC)OCCCC(OC(=O)c1cccc(C(F)(F)F)c1)CCN1CCCN(CCCOC2=O)CC1 (centres unmarked) [Compound 44, 74,75-dimethoxy-6-oxo-5,8-dioxa-1(1,4)-diazepana-7(1,3)-benzenacyclotetradecaphane-12-yl 3-(trifluoromethyl)benzoate] | 1 to 20 |
| COc1cc2cc(c1OC)OCCCC(OC(=O)c1cccc(S(C)(=O)=O)c1)CCN1CCCN(CCCOC2=O)CC1 (centres unmarked) [Compound 45, 74,75-dimethoxy-6-oxo-5,8-dioxa-1(1,4)-diazepana-7(1,3)-benzenacyclotetradecaphane-12-yl 3-(methylsulfonyl)benzoate] | 1 to 20 |
| COc1cc2cc(c1OC)OCCCC(OC(=O)c1ccccc1F)CCN1CCCN(CCCOC2=O)CC1 (centres unmarked) [Compound 47, 74,75-dimethoxy-6-oxo-5,8-dioxa-1(1,4)-diazepana-7(1,3)-benzenacyclotetradecaphane-12-yl 2-fluorobenzoate] | 1 to 20 |
| COc1cc2cc(c1OC)OCCCC(OC(=O)c1ccc(Br)c(C#N)c1)CCN1CCCN(CCCOC2=O)CC1 (centres unmarked) [Compound 48, 74,75-dimethoxy-6-oxo-5,8-dioxa-1(1,4)-diazepana-7(1,3)-benzenacyclotetradecaphane-12-yl 4-bromo-3-cyanobenzoate] | 1 to 20 |
| COc1cc2cc(c1OC)OCCCC(OC(=O)c1cc(C)cc(C(F)(F)F)c1)CCN1CCCN(CCCOC2=O)CC1 (centres unmarked) [Compound 49, 74,75-dimethoxy-6-oxo-5,8-dioxa-1(1,4)-diazepana-7(1,3)-benzenacyclotetradecaphane-12-yl 3-methyl-5-(trifluoromethyl)benzoate] | 20 to 500 |
| COc1ccc(C(=O)OC2CCCOc3cc(cc(OC)c3OC)C(=O)OCCCN3CCCN(CC2)CC3)c(F)c1 (centres unmarked) [Compound 50, 74,75-dimethoxy-6-oxo-5,8-dioxa-1(1,4)-diazepana-7(1,3)-benzenacyclotetradecaphane-12-yl 2-fluoro-4-methoxybenzoate] | 1 to 20 |
| COc1ccc(C(=O)OC2CCCOc3cc(cc(OC)c3OC)C(=O)OCCCN3CCCN(CC2)CC3)c(OC(F)(F)F)c1 (centres unmarked) [Compound 51, 74,75-dimethoxy-6-oxo-5,8-dioxa-1(1,4)-diazepana-7(1,3)-benzenacyclotetradecaphane-12-yl 4-methoxy-2-(trifluoromethoxy)benzoate] | 20 to 500 |
| COc1cc2cc(c1OC)OCCCC(OC(=O)c1cccnc1)CCN1CCCN(CCCOC2=O)CC1 (centres unmarked) [Compound 53, 74,75-dimethoxy-6-oxo-5,8-dioxa-1(1,4)-diazepana-7(1,3)-benzenacyclotetradecaphane-12-yl nicotinate] | 1 to 20 |
| COc1cc2cc(c1OC)OCCCC(OC(=O)c1ccc(O)nc1)CCN1CCCN(CCCOC2=O)CC1 (centres unmarked) [Compound 55, 74,75-dimethoxy-6-oxo-5,8-dioxa-1(1,4)-diazepana-7(1,3)-benzenacyclotetradecaphane-12-yl 6-hydroxynicotinate] | 1 to 20 |
| COc1cc2cc(c1OC)OCCCC(OC(=O)c1cccc3ncccc13)CCN1CCCN(CCCOC2=O)CC1 (centres unmarked) [Compound 56, 74,75-dimethoxy-6-oxo-5,8-dioxa-1(1,4)-diazepana-7(1,3)-benzenacyclotetradecaphane-12-yl quinoline-5-carboxylate] | 1 to 20 |
| COc1cc2cc(c1OC)OCCCC(OC(=O)c1cocn1)CCN1CCCN(CCCOC2=O)CC1 (centres unmarked) [Compound 57, 74,75-dimethoxy-6-oxo-5,8-dioxa-1(1,4)-diazepana-7(1,3)-benzenacyclotetradecaphane-12-yl oxazole-4-carboxylate] | 1 to 20 |

More lines, now with the values ahead:

| IC50 [nM] | SMILES |
| --- | --- |
| 20 to 500 | COc1cc2cc(c1OC)OCCCC(OC(=O)CC(C)C)CCN1CCCN(CCCOC2=O)CC1 (centres unmarked) [Compound 61, 74,75-dimethoxy-6-oxo-5,8-dioxa-1(1,4)-diazepana-7(1,3)-benzenacyclotetradecaphane-12-yl 3-methylbutanoate] |
| 1 to 20 | COc1cc2cc(c1OC)OCCCC(OC(=O)CCC(F)(F)F)CCN1CCCN(CCCOC2=O)CC1 (centres unmarked) [Compound 62, 74,75-dimethoxy-6-oxo-5,8-dioxa-1(1,4)-diazepana-7(1,3)-benzenacyclotetradecaphane-12-yl 4,4,4-trifluorobutanoate] |
| 1 to 20 | COc1cc2cc(c1OC)OCCCC(OC(=O)C1CCCCC1)CCN1CCCN(CCCOC2=O)CC1 (centres unmarked) [Compound 63, 74,75-dimethoxy-6-oxo-5,8-dioxa-1(1,4)-diazepana-7(1,3)-benzenacyclotetradecaphane-12-yl cyclohexanecarboxylate] |
| > 500 | COc1cc2cc(c1OC)OCCCC(OC(=O)C1CCN(C)CC1)CCN1CCCN(CCCOC2=O)CC1 (centres unmarked) [Compound 64, 74,75-dimethoxy-6-oxo-5,8-dioxa-1(1,4)-diazepana-7(1,3)-benzenacyclotetradecaphane-12-yl 1-methylpiperidine-4-carboxylate] |
| 20 to 500 | COc1cc2cc(c1OC)OCCCC(OC(=O)C1CC(C)(C)C1)CCN1CCCN(CCCOC2=O)CC1 (centres unmarked) [Compound 65, 74,75-dimethoxy-6-oxo-5,8-dioxa-1(1,4)-diazepana-7(1,3)-benzenacyclotetradecaphane-12-yl 3,3-dimethylcyclobutane-1-carboxylate] |
| 1 to 20 | COc1cc2cc(c1OC)OCCCC(OC(=O)CC1COC1)CCN1CCCN(CCCOC2=O)CC1 (centres unmarked) [Compound 66, 74,75-dimethoxy-6-oxo-5,8-dioxa-1(1,4)-diazepana-7(1,3)-benzenacyclotetradecaphane-12-yl 2-(oxetan-3-yl)acetate] |
| 20 to 500 | COc1cc2cc(c1OC)OCCCC(OC(=O)[C@H]1[C@@H]3COC[C@@H]31)CCN1CCCN(CCCOC2=O)CC1 (stereo partly drawn) [Compound 67, 74,75-dimethoxy-6-oxo-5,8-dioxa-1(1,4)-diazepana-7(1,3)-benzenacyclotetradecaphane-12-yl (1R,5S,6r)-3-oxabicyclo[3.1.0]hexane-6-carboxylate] |
| 1 to 20 | COc1cc2cc(c1OC)OCCCC(OC(=O)C1CNC(=O)C1)CCN1CCCN(CCCOC2=O)CC1 (centres unmarked) [Compound 68, 74,75-dimethoxy-6-oxo-5,8-dioxa-1(1,4)-diazepana-7(1,3)-benzenacyclotetradecaphane-12-yl 5-oxopyrrolidine-3-carboxylate] |
| 1 to 20 | COc1cc2cc(c1OC)OCCCC(OC(=O)C1CC(=O)N(Cc3ccccc3)C1)CCN1CCCN(CCCOC2=O)CC1 (centres unmarked) [Compound 69, 74,75-dimethoxy-6-oxo-5,8-dioxa-1(1,4)-diazepana-7(1,3)-benzenacyclotetradecaphane-12-yl 1-benzyl-5-oxopyrrolidine-3-carboxylate] |
| 1 to 20 | COc1cc2cc(c1OC)OCCCC(OC(=O)C1CCC(OC)CC1)CCN1CCCN(CCCOC2=O)CC1 (centres unmarked) [Compound 70, 74,75-dimethoxy-6-oxo-5,8-dioxa-1(1,4)-diazepana-7(1,3)-benzenacyclotetradecaphane-12-yl 4-methoxycyclohexane-1-carboxylate] |
| 1 to 20 | COc1cc2cc(c1OC)OCCCC(OC(=O)c1c(F)cccc1F)CCN1CCCN(CCCOC2=O)CC1 (centres unmarked) [Compound 71, 74,75-dimethoxy-6-oxo-5,8-dioxa-1(1,4)-diazepana-7(1,3)-benzenacyclotetradecaphane-12-yl 2,6-difluorobenzoate] |
